Among the data in PMC8948214, “Transport efficiency of AtGTR1 dependents on the hydrophobicity of transported glucosinolates” (Scientific Reports, 2022) are IC50 and Km values, retold here.

One series has as its target T1, AtGTR1 (Arabidopsis thaliana, UniProt Q944G5).
T1 construct: gene NPF2.10; full-length synthesized cDNA with C-terminal 8-His-tag in pESC-URA; expressed in S. cerevisiae FGY217; theoretical 68 kDa; homodimer after purification
T1 sequence (Q944G5 31-636): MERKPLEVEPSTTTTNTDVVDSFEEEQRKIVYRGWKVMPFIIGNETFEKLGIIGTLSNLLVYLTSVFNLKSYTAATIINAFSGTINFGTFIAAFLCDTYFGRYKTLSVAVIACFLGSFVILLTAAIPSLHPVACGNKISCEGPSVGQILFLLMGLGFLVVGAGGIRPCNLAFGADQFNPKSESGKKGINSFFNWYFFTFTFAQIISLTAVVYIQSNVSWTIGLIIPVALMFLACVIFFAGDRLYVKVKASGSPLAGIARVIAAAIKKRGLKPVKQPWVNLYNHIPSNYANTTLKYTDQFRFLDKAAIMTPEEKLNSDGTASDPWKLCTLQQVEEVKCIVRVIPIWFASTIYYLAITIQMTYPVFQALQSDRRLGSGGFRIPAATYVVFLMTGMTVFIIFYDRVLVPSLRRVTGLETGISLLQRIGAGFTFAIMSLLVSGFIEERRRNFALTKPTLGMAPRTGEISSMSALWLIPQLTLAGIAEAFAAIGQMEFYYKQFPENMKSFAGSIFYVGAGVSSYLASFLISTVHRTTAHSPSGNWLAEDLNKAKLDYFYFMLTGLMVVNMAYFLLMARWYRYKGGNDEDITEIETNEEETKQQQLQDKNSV
The experiment in a line: inhibition of glucotropaeolin uptake in yeast, RP-HPLC. It is filed as cell-based.

Substrate in series [1]: O=S(=O)(O)O/N=C(\Cc1ccccc1)S[C@@H]1O[C@H](CO)[C@@H](O)[C@H](O)[C@H]1O
Kind of series: yeast uptake assay, RP-HPLC of desulfo-glucosinolate. It is filed as cell-based, Arabidopsis thaliana. To be noted: 15 min uptake, 2.5-320 μM substrate, pH 5.5, 30 °C, proton-coupled, apparent.

Substrate in series [2]: O=S(=O)(O)O/N=C(/Cc1c[nH]c2ccccc12)S[C@@H]1O[C@H](CO)[C@@H](O)[C@H](O)[C@H]1O
The series is described as above. It is filed as cell-based, Arabidopsis thaliana. To be noted: 15 min uptake, 2.5-320 μM substrate, pH 5.5, 30 °C, proton-coupled, apparent.

With `O=C(O)Cc1c[nH]c2ccccc12` [IAA, 3-indoleacetic acid], it took 762 ± 48.1 µM to reach half-maximal inhibition against AtGTR1 (IC50).

For the molecule `CC/C=C\C[C@H]1C(=O)CC[C@@H]1CC(=O)O` [JA, jasmonic acid], on AtGTR1, it took 938 ± 114 µM to reach half-maximal inhibition (IC50).

On to `O=C(O)c1ccccc1O` [SA, salicylic acid], for which, at AtGTR1, the IC50 (in general, the concentration at which inhibition is half-maximal) was found to be 630 ± 47.5 µM.

B1: AtGTR1 (Arabidopsis thaliana) (protein)
chain: MERKPLEVEPSTTTTNTDVVDSFEEEQRKIVYRGWKVMPFIIGNETFEKLGIIGTLSNLLVYLTSVFNLKSYTAATIINAFSGTINFGTFIAAFLCDTYFGRYKTLSVAVIACFLGSFVILLTAAIPSLHPVACGNKISCEGPSVGQILFLLMGLGFLVVGAGGIRPCNLAFGADQFNPKSESGKKGINSFFNWYFFTFTFAQIISLTAVVYIQSNVSWTIGLIIPVALMFLACVIFFAGDRLYVKVKASGSPLAGIARVIAAAIKKRGLKPVKQPWVNLYNHIPSNYANTTLKYTDQFRFLDKAAIMTPEEKLNSDGTASDPWKLCTLQQVEEVKCIVRVIPIWFASTIYYLAITIQMTYPVFQALQSDRRLGSGGFRIPAATYVVFLMTGMTVFIIFYDRVLVPSLRRVTGLETGISLLQRIGAGFTFAIMSLLVSGFIEERRRNFALTKPTLGMAPRTGEISSMSALWLIPQLTLAGIAEAFAAIGQMEFYYKQFPENMKSFAGSIFYVGAGVSSYLASFLISTVHRTTAHSPSGNWLAEDLNKAKLDYFYFMLTGLMVVNMAYFLLMARWYRYKGGNDEDITEIETNEEETKQQQLQDKNSV
notes: full-length synthesized cDNA with C-terminal 8-His-tag in pESC-URA; expressed in S. cerevisiae FGY217; theoretical 68 kDa; homodimer after purification
Turning to B1, the Km (in general, the concentration of substrate that gives half-maximal velocity) in series [1] came to 13.6 ± 1.55 µM; in series [2], 8.2 ± 0.60 µM.
